According to US20080008771A1, “Nitric Oxide Dioxygenase Inhibitors” (priority 2004, published 2008):
Where “and” joins values, the source holds several entries; their conditions need not be identical. Equal values may be shown once. Read-outs that look alike come from different tables or passages of the source.

How the values were obtained:
[1] = biological target: T1, E. coli flavohemoglobin (NOD) (Escherichia coli, UniProt P24232)
From the text: (§1) The specific activities of the E. coli, A. eutrophus and S. cerevisiae NOD were 185, 90 and 105 NO heme^−1 s^−1, respectively.

[2] = test system: microsomal NO metabolism (Caco-2 microsomes); conditions: for IC50: read-out: IC50, microsomal NO metabolism
Protocol: NO metabolism by cell fractions was assayed in 100 mM Na-Hepes, pH 7.8, 0.25 M sucrose, 1 mM EDTA and 1 mM EGTA (Sucrose Buffer) containing 15 μM Cu,ZnSOD and 100 μM NADPH. Cell fractions were added with a 50 μl Hamilton syringe to give a total of 100-750 μg protein. For determination of O2 dependence of microsomal NO metabolism, the 2 ml reaction was sparged with N2 for 10 minutes to remove O2, and O2 was depleted from microsomal membranes by stirring membranes under a stream of N2 in a rubber septum-sealed tube on ice. Alternatively, residual O2 was removed by incubating the reaction mix with 16 units glucose oxidase, 1 mM glucose and 260 units catalase for 5 minutes prior to adding NO and microsomes. O2 was added from O2 saturated buffer to achieve various O2 concentrations.
Data represent the average of two or more two independent trials.
NO consumption by Caco-2 microsomes was assayed as previously described.

flavohemoglobins = assay: CO binding to ferrous hemes of flavohemoglobins; conditions: read-out: dissociation equilibrium constants, ferrous hemes of flavohemoglobins
flavohemoglobins (NOD) = assay: CO inhibition of flavohemoglobin NOD activities; type: biochemical; conditions: read-out: Ki, competitive inhibition of NOD activities with respect to O2
Caco-2 cells [3] = assay: NO consumption (NO metabolism) by Caco-2 cells; conditions: for % Activity, Caco-2: agent 100 μM, 15 min incubation, 100% = 25.4±1.4 nmol NO per minute per 107 cells
Protocol: (§2) Initial rates of NO consumption were measured at 1 μM NO unless otherwise stated, and all rates were corrected for background rates of NO decomposition. A milliunit of activity is defined as the amount metabolizing 1 nanomol NO per min. […] Rotenone (0.5 μM) was included in CO inhibition assays to block respiration and O2 depletion. […] Cell permeabilization was monitored by the loss of NO metabolic activity.
(§3) Error bars represent the SD of three independent trials.
(§4) In addition to cyanide and CO, heme-binding imidazoles, a panel of substrate-inhibitors of cytochrome P450s, inhibitors of the NO-binding heme oxygenases, and free radical scavengers were surveyed for effects on NO metabolism by Caco-2 and A549 cells. All agents were used at concentrations showing minimal cytotoxicity as defined by <5% decrease in trypan blue exclusion following 15 min exposure (data not shown). Caco-2 and A549 cells were grown, harvested and assayed for NO consumption activity following a 15 min incubation in 2 ml DPBS containing 5 mM glucose and 100 μg/ml cycloheximide with the indicated agent as previously described. Data represent the mean ±SD of three independent exposures.

A549 cells = assay: NO consumption (NO metabolism) by A549 cells; type: cell-based, human; conditions: for Inhibition of NO metabolic activity, A549: porphyrin 100 μM; for activity at 20 µM: agent 20 μM
From the text: . The results are show in Table II.

[4] = biological target: T2, NADPH-cytochrome P450 oxidoreductase (CYPOR) (Homo sapiens, UniProt P16435); assay: CYPOR (cytochrome c reductase) activity
T2 sequence (P16435 1-677): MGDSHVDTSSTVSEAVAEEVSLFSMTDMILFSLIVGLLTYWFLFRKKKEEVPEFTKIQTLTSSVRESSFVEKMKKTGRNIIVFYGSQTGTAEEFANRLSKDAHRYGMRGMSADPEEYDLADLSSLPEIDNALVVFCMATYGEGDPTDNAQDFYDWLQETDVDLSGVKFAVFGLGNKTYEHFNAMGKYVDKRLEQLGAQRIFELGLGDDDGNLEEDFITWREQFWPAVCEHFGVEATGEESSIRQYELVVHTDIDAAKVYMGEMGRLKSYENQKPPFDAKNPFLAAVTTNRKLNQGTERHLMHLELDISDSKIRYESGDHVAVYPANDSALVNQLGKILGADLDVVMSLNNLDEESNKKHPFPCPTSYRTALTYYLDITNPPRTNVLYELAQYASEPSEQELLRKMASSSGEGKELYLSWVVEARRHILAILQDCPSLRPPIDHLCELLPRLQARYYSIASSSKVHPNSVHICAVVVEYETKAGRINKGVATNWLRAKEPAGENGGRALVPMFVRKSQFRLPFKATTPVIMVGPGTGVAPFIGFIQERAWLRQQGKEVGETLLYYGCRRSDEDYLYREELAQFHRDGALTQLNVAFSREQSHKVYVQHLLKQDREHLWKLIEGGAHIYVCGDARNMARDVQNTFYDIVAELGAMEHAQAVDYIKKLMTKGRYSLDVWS
Protocol: The incubations contained 120 μl of Sucrose Buffer and 30 μl of PBS (8.1 mM Na2HPO4, 1.1 mM KH2PO4, 138 mM NaCl and 2.7 mM KCl, pH 7.4) introduced with IgG or BSA.

[5] = biological target: T3, A. eutrophus flavohemoglobin (Cupriavidus necator, UniProt P39662)
T3 sequence (P39662 whole entry): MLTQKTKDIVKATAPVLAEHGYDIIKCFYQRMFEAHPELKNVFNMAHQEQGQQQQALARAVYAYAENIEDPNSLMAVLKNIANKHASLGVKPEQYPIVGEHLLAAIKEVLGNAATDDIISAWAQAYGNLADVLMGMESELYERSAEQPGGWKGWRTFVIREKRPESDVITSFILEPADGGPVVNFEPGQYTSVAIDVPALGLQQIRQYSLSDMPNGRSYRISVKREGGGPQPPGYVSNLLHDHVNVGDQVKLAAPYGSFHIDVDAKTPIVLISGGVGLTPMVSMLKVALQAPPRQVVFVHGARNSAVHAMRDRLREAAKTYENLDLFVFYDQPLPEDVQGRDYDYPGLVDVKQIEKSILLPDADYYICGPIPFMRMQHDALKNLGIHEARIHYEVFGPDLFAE
From the text: as §1

Caco-2 cells [6] = test system: Caco-2 cells
Protocol: as §2, §3, §4

[7] = biological target: T1, E. coli flavohemoglobin (NOD); assay: biochemical
From the text: as §1

[8] = biological target: T3, A. eutrophus flavohemoglobin; assay: biochemical; conditions: Apparent Ki
From the text: as §1

[9] = biological target: S. cerevisiae flavohemoglobin (Saccharomyces cerevisiae, UniProt P39676); assay: biochemical
S. cerevisiae flavohemoglobin, sequence (P39676 whole entry): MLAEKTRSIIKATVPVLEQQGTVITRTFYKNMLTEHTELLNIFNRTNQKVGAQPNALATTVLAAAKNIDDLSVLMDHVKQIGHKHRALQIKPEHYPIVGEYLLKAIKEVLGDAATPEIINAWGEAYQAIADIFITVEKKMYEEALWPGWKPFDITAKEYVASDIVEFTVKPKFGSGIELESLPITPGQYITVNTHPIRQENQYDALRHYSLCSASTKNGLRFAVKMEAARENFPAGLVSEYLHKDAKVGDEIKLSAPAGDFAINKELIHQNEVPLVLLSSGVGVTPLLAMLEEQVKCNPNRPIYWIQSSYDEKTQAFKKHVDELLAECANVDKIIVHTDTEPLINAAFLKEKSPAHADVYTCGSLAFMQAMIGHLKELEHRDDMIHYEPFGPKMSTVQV
From the text: as §1

S. cerevisiae = assay: NO consumption (NOD) activity within S. cerevisiae; type: cell-based, Saccharomyces cerevisiae; conditions: 0 μM to about 20 μM miconazole
From the text: Error bars represent the standard deviation of the average of three independent trials.

[10] = test system: S. cerevisiae parental strain BY4742; assay: Growth of S. cerevisiae under NO atmosphere; type: cell-based, Saccharomyces cerevisiae; conditions: 5 μM miconazole, 960 ppm NO, 21% O2
Protocol: At the time indicated by the arrow, cultures were exposed to an atmosphere containing 960 ppm NO (<2 μM NO in solution) in a 21% O2/N2 balance (lines 2 and 4) or were maintained under an atmosphere of 21% O2 balanced with N2 (lines 1 and 3).
At the time indicated by the arrow, cultures were either maintained fewer than 21% O2 balanced with N2 (lines 1 and 3) or were exposed to 960 ppm NO in the 21% O2/N2-balanced atmosphere (lines 2 and 4). Cultures were grown and exposed to gases.

heme oxygenase = conditions: cited from earlier work
[11] = Homo sapiens, A549, 0.25 h, 15 min incubation

T1 sequence (P24232 whole entry): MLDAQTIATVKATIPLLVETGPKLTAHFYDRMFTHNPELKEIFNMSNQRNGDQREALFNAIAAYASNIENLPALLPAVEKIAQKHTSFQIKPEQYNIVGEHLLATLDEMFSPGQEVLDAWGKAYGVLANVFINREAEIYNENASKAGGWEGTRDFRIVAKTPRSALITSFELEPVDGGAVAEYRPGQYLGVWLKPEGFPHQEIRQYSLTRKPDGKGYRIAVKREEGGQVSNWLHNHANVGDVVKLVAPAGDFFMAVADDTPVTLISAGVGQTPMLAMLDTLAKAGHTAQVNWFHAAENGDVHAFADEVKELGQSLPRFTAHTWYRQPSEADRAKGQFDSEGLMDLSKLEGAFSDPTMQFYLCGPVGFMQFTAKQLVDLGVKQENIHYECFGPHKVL

C=CCS[S+]([O-])CC=C (stereo not drawn) [Allicin, diallyl thiosulfinate]
Effect on isolated E. coli NOD [1]: inactivates the isolated E. coli NOD

[C-]#[O+] [CO, carbon monoxide]
Inhibition of microsomal NO consumption ([2]; 10 μM CO, 20 μM O2, 1 μM NO): > 50%
Inhibition of NO metabolism by CO, microsomes ([2]; CO:O2 ratio 0.75): about 75%
Kd (flavohemoglobins): < 0.7 µM
Ki (flavohemoglobins (NOD)): ~1 µM
Inhibition of NO metabolism by CO, cells (Caco-2 cells [3]; CO:O2 ratio 0.4): about 75%
Ki (Caco-2 cells [3]; read-out: Ki(CO), competitive inhibition of cellular NO metabolism, 5 μM CO, 12.5 μM O2, competitive with O2): ~3 µM and 3 µM

c1ccc2c(c1)[I+]c1ccccc1-2 [DPI, Diphenyleneiodonium]
Loss of microsomal NO metabolic activity [2]: Seventy-five percent

COC(=O)[C@@H](N)CCCNC(=N)N[N+](=O)[O-] [L-NAME, N ω-nitro-L-arginine methyl ester]
activity at 1000 µM (A549 cells; Homo sapiens, A549, 0.25 h, agent 1 mM, 15 min incubation): 101 ± 2.9%
% Activity, microsomal NO metabolism ([2]; inhibitor 1 mM): 96.7 ± 6.0%

C=CC1=C(C)c2cc3[n-]c(cc4[n-]c(cc5nc(cc1n2)C(C)=C5C=C)c(C)c4CCC(=O)O)c(CCC(=O)O)c3C.[Zn+2] [Zn2+-protoporphyrin, Zn(II)-protoporphyrin IX]
Inhibition of NO metabolic activity, A549 (A549 cells): about 40%
Effect of porphyrins on microsomal NO metabolism [2]: inhibited microsomal NO metabolism
Effect on cytochrome c reduction by microsomal membranes and purified CYPOR [4]: progressive inhibition of cytochrome c reduction

C=CCSCC=C [diallyl sulfide]
% Activity, Caco-2 (Caco-2 cells [3]): 98.1 ± 1.7%

Clc1ccc(COC(Cn2ccnc2)c2ccc(Cl)cc2Cl)cc1 (stereo not drawn) [econazole]
activity at 20 µM (A549 cells; [11]): 36.2 ± 4.9%
% Activity, microsomal NO metabolism ([2]; 100 µM): 15.3 ± 0.0%
IC50 ([2]; Caco-2 microsomes): 10 µM

Cc1nc2c([nH]1)c(=O)n(C)c(=O)n2Cc1ccco1 [furafylline]
activity at 10 µM (A549 cells; Homo sapiens, A549, 0.25 h, agent 10 μM, 15 min incubation): 98.2 ± 3.1%

CC(=O)N1CCN(c2ccc(OCC3COC(Cn4ccnc4)(c4ccc(Cl)cc4Cl)O3)cc2)CC1 (stereo not drawn) [ketoconazole]
% Activity, microsomal NO metabolism ([2]; 100 µM): 25.9 ± 2.6%
IC50 [2]: 10 µM
Fraction inhibited as percentage of total activity, first (major) phase ([5]; belongs to the first-phase Ki): (˜75%)
Fraction inhibited as percentage of total activity, second (minor) phase ([5]; belongs to the second-phase Ki): (˜25%)
% Activity, Caco-2 (Caco-2 cells [6]): 22.3 ± 4.1%
Ki [7]: 5 µM
Ki ([8]; first (major) phase): 0.7 µM
Ki ([8]; second (minor) phase): 25 µM
Ki [9]: > 100 µM

Clc1ccc(COC(Cn2ccnc2)c2ccc(Cl)cc2Cl)c(Cl)c1 (stereo not drawn) [miconazole]
activity at 20 µM (A549 cells; [11]): 38.2 ± 5.9%
% Activity, microsomal NO metabolism ([2]; 100 µM): 17.0 ± 0.0%
IC50 ([2]; Caco-2 microsomes): 20 µM
Effect on NOD activity in S. cerevisiae (S. cerevisiae): inhibition of NOD activity
Effect on growth of S. cerevisiae together with NO [10]: synergistically inhibited growth of S. cerevisiae

C=CC1=C(C)c2cc3[nH]c(cc4nc(cc5[nH]c(cc1n2)c(C)c5CCC(=O)O)C(CCC(=O)O)=C4C)c(C)c3C=C [protoporphyrin, Protoporphyrin IX]
Effect of porphyrins on microsomal NO metabolism [2]: inhibited NO metabolism to a significant (p<0.05), albeit lesser, extent
Effect on cytochrome c reduction by microsomal membranes and purified CYPOR ([4]; 20 μM, data not shown): progressive inhibition of cytochrome c reduction

O=c1c(O)c(-c2ccc(O)c(O)c2)oc2cc(O)cc(O)c12 [quercetin]
% Activity, microsomal NO metabolism ([2]; inhibitor 100 μM): 84.1 ± 4.4%

Nc1ccc(S(=O)(=O)Nc2ccnn2-c2ccccc2)cc1 [sulfaphenazole]
% Activity, Caco-2 (Caco-2 cells [3]): 97.1 ± 3.0%

Cc1c(C)c2c(c(C)c1O)CC[C@@](C)(CCC[C@H](C)CCC[C@H](C)CCCC(C)C)O2 [α-tocopherol]
% Activity, microsomal NO metabolism ([2]; inhibitor 100 μM): 106.9 ± 3.4%

Sn(IV)-protoporphyrin IX [Sn4+-protoporphyrin]
Inhibition of NO metabolic activity, A549 (A549 cells): no effect
Ki (heme oxygenase): < 0.1 µM
